Tests used:
M1 TAM = test: Flow cytometric analysis (FACS) of tumor tissue, 4T1 allograft model; type: in vivo, BALB/c mice
Experimental: (§1) The tumor tissues from each mouse were subjected to single cell isolation, followed by flow cytometric analysis (FACS) to confirm the immunomodulatory effect.
(§2) Specifically, the spleen and tumor of the mouse were extracted 31 days after tumor cell injection in the same manner as in Example 8. After the tumor tissue was excised, it was mechanically processed by fine chopping using a sterilized razor blade, and then treated with DNase (0.1 mg/ml) and collagenase (1 mg/ml), respectively, and reacted at 36° C. for 30 minutes to obtain a single cell suspension. To analyze infiltrating leukocytes after isolation of single cells from the tumor tissue, […] cells per FACS tube were stained with FITC, PE, PerCP/Cy5.5, and APC fluorescence using CD3 antibody, CD8b antibody, CD4 antibody, CD11b antibody, F4/80 antibody, and CD206 antibody. For each stained sample, the fraction of CD8+ cytotoxic T cells was calculated using BD Bioscience FACSCalibur machines. Analysis of the FACS results was performed using FlowJo software, version 10.

CD8+ T cells = test: as above; type: in vivo, BALB/c mice; settings: 31 days
Experimental: as §1, §2

M2 TAM = test: as above; type: in vivo, BALB/c mice
Experimental: as §1, §2

BRD4 = test: Western blotting of tumor tissue from MDA-MB-231 tumor-bearing mice; type: in vivo, BALB/c-nude mice; settings: 5, 10 and 20 mg/kg (T4, T5, T6), once by intravenous injection
Experimental: (§3) An experiment was performed to confirm the inhibitory effect of the compound of Example 1, the active ingredient of the pharmaceutical composition of the present invention, on the expression of major proteins on cancer cell growth through Western blotting.
(§4) Specifically, MDA-MB-231 cells, a TNBC cell line, were cultured in a 37° C., 5% CO2 incubator, and the medium used for cell culture was RPMI-1640 supplemented with 10% FBS. Tumors were induced by subcutaneously injecting 5×10^6/head/100 μl of MDA-MB-231 cells into the right neck of BALB/c-nude mice (5 mice each in control and administration groups), and the experiment was performed when the tumor size reached 200 mm^3. The compound of Example 1, the active ingredient of the pharmaceutical composition of the present invention, was administered once by intravenous injection at concentrations of 5, 10, and 20 mg/kg (T4, T5, and T6) and then euthanized using CO2, and the resulting tumor tissues from the control and administration groups were taken and subjected to Western blotting. Proteins were isolated from the tumor tissues and the results of Western blotting were confirmed using BRD4, c-myc, PD-L1, and Actin antibodies, respectively.

c-myc = test: as above; type: in vivo, BALB/c-nude mice; settings: 5, 10 and 20 mg/kg (T4, T5, T6), once by intravenous injection
Experimental: as §3, §4

PD-L1 = test: as above; type: in vivo, BALB/c-nude mice; settings: 5, 10 and 20 mg/kg (T4, T5, T6), once by intravenous injection
Experimental: as §3, §4

Huh-7 = test: Cell viability alone and in combination with sorafenib; type: cell-based, Human
Experimental: (§5) Human liver cancer cell lines (SK Hep1 and Huh-7) were treated with control (no treatment), 0.1 μM of the compound of Example 1, 1 μM of sorafenib, and 0.1 μM of the compound of Example 1/1 μM of sorafenib, and the cell viability of SK Hep1 and Huh-7 was confirmed.

SK Hep1 = test: as above; type: cell-based, Human
Experimental: as §5

MDA-MB-453 = test: Cell viability, breast cancer cell line; type: cell-based; settings: MDA-MB-453, 24 hours, dose dependently
Experimental: FIGS. 4A-4C show the cell viability of MDA-MB-231, MDA-MB-453, and BT-20 after 24 hours of treatment with the compound of Example 1. As shown in FIGS. 4A-4C, it was confirmed that the cell viability was suppressed not only in general breast cancer cell lines, but also in TNBC cell lines dose dependently.

breast cancer cell line = test: Formation of mammospheres in a breast cancer cell line; type: cell-based
[1] = system: 4T1 murine triple negative breast cancer cells; test: Lung metastasis in triple-negative breast cancer allograft mouse model; type: in vivo, BALB/c mice; settings: 31st day
Experimental: 4T1 murine triple negative breast cancer cells (6×10^5 cells) were injected into the hind limbs of 6-week-old immune-competent BALB/c mice. Seven days after injection, after confirming consistent tumor growth, 10 mice from each group were selected and used in subsequent experiments.
The experimental groups consisted of a control group (no treatment), a radiotherapy group, a group treated with the compound of Example 1, and a group treated with a combination of the compound of Example 1 and radiotherapy. Each treatment was carried out for 31 days after tumor implantation.
Radiation treatment was performed using electron beams, and a total of 24 Gy was irradiated three times, once every two days for one week (Days 10, 12, and 14) (8 Gy×3). The compound of Example 1 was administered intravenously at a dose of 10 mg/kg once every 2 or 3 days (Days 10, 12, 14, 17, 19, and 21) for a total of 6 times over 2 weeks. On the days when radiation therapy and drug administration were conducted simultaneously, the compound of Example 1 was administered after confirming that the mice had recovered from anesthesia 4 hours after radiation therapy.
Mice were prepared in the same manner as in Example 8, and the lungs of the mice were removed on the 31st day after tumor injection, and the results of observing lung metastasis are shown in FIG. 13.

HepG2 = test: Clonogenic assay; type: cell-based; settings: 2.5 and 5 μM, 10 days
Experimental: (§6) HepG2 and Hep3B were each seeded in 12-well plates at the density of 3×10^3 cells/well and cultured for 24 hours. Then, Sorafenib and the compound of Example 1 were treated thereto at 2.5 and 5 μM each and cultured for 10 days. Upon completion of the culture, the cells were washed with PBS, fixed with 37% formaldehyde, and stained with 0.01% crystal violet. After staining, the cells were washed with distilled water and the colonies of stained cells were photographed.

Hep3B = test: Clonogenic assay; type: cell-based; settings: 2.5 and 5 μM, 10 days
Experimental: as §6

[2] = 0.1 μM Example 1 combined with 1 μM sorafenib

For `Oc1c(Cl)cc(-c2c[nH]c3ncnc(N[C@H]4CC[C@H](O)CC4)c23)cc1Cl` [Example 1, (trans)-2,6-dichloro-4-(4-(4-hydroxycyclohexylamino)-7H-pyrrolo[2,3-d]pyrimidin-5-yl)phenol], the “M1 TAM” value (M1 TAM; alone) was “significantly (P<0.01) increased”, the “M1 TAM” value (M1 TAM; combined with radiation) was “increase” and the “proportion of CD8+ T cells in tumor” value (CD8+ T cells; alone) was “increased”. For the same compound, the “proportion of CD8+ T cells in tumor compared to each administration alone” value (CD8+ T cells; combined with radiation) was “significantly increased”, the “M2 TAM” value (M2 TAM; alone) was “significantly (P<0.01) decreased” and the “M2 TAM” value (M2 TAM; combined with radiation) was “decrease”. For the same compound, the “expression of BRD4 in tumor tissue vs untreated negative control (NC)” value (BRD4) was “reduced”, the “expression of c-myc in tumor tissue vs untreated negative control (NC)” value (c-myc) was “reduced” and the “expression of PD-L1 in tumor tissue vs untreated negative control (NC)” value (PD-L1) was “reduced”. For the same compound, the cell viability (Huh-7; [2]) was “further inhibited (synergistic effect)”, the cell viability (Huh-7; 0.1 μM alone) was “suppressed” and the cell viability (SK Hep1; [2]) was “further inhibited (synergistic effect)”. The cell viability (SK Hep1; 0.1 μM alone) was “suppressed”, the cell viability (MDA-MB-453) was “suppressed” and the formation of mammospheres (breast cancer cell line) was “inhibits”. The “lung metastasis compared to control group” value ([1]; alone, 10 mg/kg intravenously) was “significantly reduced metastasis”, the “lung metastases compared to each administration alone” value ([1]; combined with radiation (8 Gy×3)) was “significantly (P<0.05) reduced lung metastases” and the “number of colonies, treated vs not treated” value (HepG2) was “clear difference in the number of colonies”. For the same compound, the “number of colonies, treated vs not treated” value (Hep3B) was “clear difference in the number of colonies”.

— patent US12605382B2, “Pharmaceutical composition for preventing, alleviating, or treating cancer containing 2,6-dichloro-4-(4-(4-hydroxycyclohexylamino)-7H- pyrrolo[2,3-d]pyrimidin-5-yl)phenol as active ingredient” (JBKLAB CO., LTD., priority 2021, dated 2026)
